Values quoted from earlier work, collected in patent US6495173B1, “Compositions and methods for reducing or controlling blood cholesterol, lipoproteins, triglycerides and atherosclerosis” (priority 2000, dated 2002).
One block for each compound: values may come before it.

Experiments:
[1] = supplement users versus non-users
[2] = 500 mcg BID, after 2 and 4 months
[3] = human, in vivo
[4] = in vivo
[5] = rats
[6] = mean dose of 2,250 mg/day
[7] = large doses (3 to 6 g/day)
[8] = 75 mg to 600 mg/day, eight years
[9] = 100 mg per day for 30 days

Compound: vitamin E
absolute risk reduction [1]: 3.4 women per 10,000 woman-years
reduction in relative risk for non-fatal myocardial infarction and death from cardiovascular disease ([1]; average 8 years follow-up, adjusted): 31%

Compound: [Cr] [chromium]
blood sugar and cholesterol versus placebo group [2]: lower

increased liver transaminase levels, share of subjects [4]: 2%
myopathy with a creatine kinase greater than 10 times normal, share of subjects [4]: 0.5%
required discontinuation, share of those treated [4]: 9%
Compound: CC[C@H](C)C(=O)O[C@H]1C[C@@H](C)C=C2C=C[C@H](C)[C@H](CC[C@@H]3C[C@@H](O)CC(=O)O3)[C@H]21 [Lovastatin, lovastatin]
decrease in levels of LDL [3]: 32.4%
decrease in levels of VLDL [3]: 53%

Compound: CC(C)(C)c1cc(O)ccc1O [TBHQ, tert-butylhydroquinone]
blood cholesterol and triglycerides [5]: reduce

Compound: O=C(O)c1cccnc1 [Nicotinic acid]
increase in levels of HDL-cholesterol [6]: 35%
increase in HDL [7]: ≤ 30 mg/dL

Coenzyme Q10 levels in all three LDL subfractions ([9]; P<0.01): increased
Compound: COC1=C(OC)C(=O)C(C/C=C(\C)CC/C=C(\C)CC/C=C(\C)CC/C=C(\C)CC/C=C(\C)CC/C=C(\C)CC/C=C(\C)CC/C=C(\C)CC/C=C(\C)CCC=C(C)C)=C(C)C1=O [Coenzyme Q10]
decreased dependency on drugs [8]: 43%
improvements in myocardial function [8]: 58%
hydroperoxide levels in the LDL3 subfraction [9]: significant decrease

Compound: chromium picolinate
triglyceride level (supplementation for 2 months (vs. 161)): 133 mg/dL
reduction in triglyceride levels (supplementation for 2 months, P<0.05): 17.4%
